Results on 4 compounds are retold here after patent US12595236B2, “Pyrimidine-2,4-diamine compound and preparation method and application thereof” (ANHUI MEDICAL UNIVERSITY, priority 2021, dated 2026).

Data set [1] has as its target T1, intracellular cathepsin C in U937 cells (Homo sapiens, UniProt P53634).
T1 construct: endogenous in cells; host or cells: U937
Nature of the data set: In vitro inhibitory effect on intracellular cathepsin C in U937 cells. To be noted: 1 h incubation at 37° C., h-gly-arg-amc 200 μM, read-out: U937 CatC IC50. In kind it is cell-based.

The target of data set [2] is T2, intracellular cathepsin C in THP-1 cells (Homo sapiens, UniProt P53634).
T2 construct: endogenous in cells; host or cells: THP-1
T2 sequence (P53634 25-463): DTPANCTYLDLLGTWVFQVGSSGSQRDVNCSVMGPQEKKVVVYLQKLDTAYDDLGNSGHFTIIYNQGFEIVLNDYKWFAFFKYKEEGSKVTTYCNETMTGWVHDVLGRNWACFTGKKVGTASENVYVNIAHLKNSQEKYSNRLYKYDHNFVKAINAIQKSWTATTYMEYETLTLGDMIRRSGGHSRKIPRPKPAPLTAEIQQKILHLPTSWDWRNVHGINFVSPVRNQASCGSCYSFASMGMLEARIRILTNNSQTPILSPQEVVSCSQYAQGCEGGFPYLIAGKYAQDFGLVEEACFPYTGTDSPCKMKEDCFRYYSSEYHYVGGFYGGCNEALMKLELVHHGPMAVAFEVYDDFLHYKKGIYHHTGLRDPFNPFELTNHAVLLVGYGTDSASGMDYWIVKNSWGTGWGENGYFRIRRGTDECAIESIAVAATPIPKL
Nature of the data set: In vitro inhibitory effect on intracellular cathepsin C in THP-1 cells. The settings on record: 1 h incubation at 37° C., h-gly-arg-amc 200 μM, read-out: THP-1 CatC IC50. In kind it is cell-based.

Data set [3] addresses human recombinant cathepsin C (Homo sapiens, UniProt P53634). As to the kind of experiment: In vitro inhibitory effect on human recombinant cathepsin C (h-gly-arg-amc substrate). Type of data set: biochemical. The settings on record: human recombinant cathepsin C 2 nM, 30 min preincubation at 25° C., substrate 100 μM; read-out: CatC IC50.
Data set [4] concerns cytokines (IFN-γ, IL-1β, IL-6, IL-17, TNF-α, GM-CSF, IL-10). As to the kind of experiment: Cytokine levels in COPD model by ELISA. Type of data set: in vivo. The settings on record: COPD rats; bone marrow, blood, lung, and BALF; dose-dependent. As to the method: (§1) A combination of fumigation and LPS (Sigma) was used. […] Except for the negative control group, all rats were exposed to cigarette smoke (XIONGSHI) for 45 min in each day from day 1 to day 13 and day 15 to day 30, subjected to tracheal instillation of LPS ([…]) on day 0 (start point of the study), and subjected to tracheal instillation of LPS ([…]) on day 14. The body weight was recorded every three days, and the behavior, coat color and breathing were observed daily. On day 31, the animals were euthanized with an overdose of chloral hydrate. Subsequently, lung, bronchoalveolar lavage fluid (BALF), blood, bone marrow samples were collected and stored at −80° C. until being detected. The levels of cathepsin C and NSP were detected with previously described methods, and cytokine levels in all samples were analyzed by ELISA kits (MULTI SCIENCES).

Data set [5] has as its system cathepsin C and downstream NSPs. As to the kind of experiment: Cathepsin C and NSP levels in COPD model. Type of data set: in vivo. To be noted: COPD rats, oral 5, 15, 45 mg/kg twice a day; bone marrow, blood, lung, and BALF; dose-dependent. The protocol: as §1
The subject of another data set is cathepsin C and NSPs. Nature of the data set: Test of in vivo inhibition of cathepsin C and NSPs in normal mice. The settings on record: C57BL/6 mice, oral 5, 15, 45 mg/kg for 6 days; bone marrow and blood; dose-dependent. The protocol:
Test of In Vivo Inhibition of Cathepsin C and NSPs.
C57BL/6 mice (half sex, about 20 g, purchased from the Department of Animal Science of Anhui Medical University) were randomly divided into four groups (N=6). […] Mice in the control group were administered with the same amount of normal saline twice a day for 6 days. At the end, bone marrow and blood were drawn to analyze the activity of cathepsin C and NSPs. Bone marrow and blood lysates were added to a 384-well plate. A synthetic peptide substrate was used to analyze the activity of NSPs and cathepsin C.

The test system of another data set is COPD rat model. Nature of the data set: In vivo anti-inflammatory activity assessment, COPD model (fumigation and LPS). Further details: species or system rats. The settings on record: oral 5, 15, 45 mg/kg twice a day. The protocol:
In Vivo Anti-Inflammatory Activity Assessment:
as §1

Data set [6] can be described thus: In vivo acute toxicity evaluation. The settings on record: mouse, ICR mice, oral, 1500 mg/kg at one time, observed one week. The source says: (§2) In Vivo Acute Toxicity Evaluation:
(§3) The mice were randomly divided into two groups and subjected to adaptive feeding for one week. […] The body weight, mortality and behavior of the mice were observed and recorded daily for one week. Subsequently, the mice were anesthetized and the tissues were used for HE staining.

In another data set the test system is ICR mice. Nature of the data set: In vivo acute toxicity evaluation. To be noted: mouse, po, 1500 mg/kg.
Source text: as §2, §3

T1 sequence (P53634 25-463): as above
Sequence of human recombinant cathepsin C (P53634 25-463): as above

As to “5-chloro-N^2-(5-(4-(dimethylamino)phenyl)pyridin-2-yl)-N^4-(3-(trifluoromethyl)phenyl)pyrimidine-2,4-diamine [Compound 61]”, the IC50 in data set [1] was determined as 377.5 ± 0.9 nM; in data set [2], 278.2 ± 1.2 nM; in [3] it was 305.3 ± 2.7 nM.

Take `CN1CCN(c2ccc(Nc3ncc(Cl)c(Nc4cccc(C(F)(F)F)c4)n3)nc2)CC1` [Compound 41, 5-chloro-N^2-(5-(4-methylpiperazin-1-yl)pyridin-2-yl)-N^4-(3-(trifluoromethyl)phenyl)pyrimidine-2,4-diamine]: in [4], the IL-10 level result was “increased cytokines (IL-10) in a dose-dependent manner”; the “level of pro-inflammatory cytokines (IFN-γ, IL-1β, IL-6, IL-17, TNF-α, and GM-CSF)” value is reported as “decreased level of pro-inflammatory cytokines”. Also, in data set [5], the “cathepsin C activity and downstream NSP activation” value was “decreased obviously”. The “cathepsin C activity and downstream NSP activation” value with cathepsin C and NSPs is recorded as “decreased obviously”. Further, the “histopathological changes of lung tissue (H&E staining)” value with COPD rat model (COPD rat model) is listed as “ameliorated these histopathological changes in an obvious dose-dependent manner”. Further, in the data set with COPD rat model (COPD rats), the body weight entry was “lost their weight slowly and gained weight slightly after about 20 days”. The “pulmonary inflammation and systemic inflammation” value in the data set with COPD rat model (COPD rats, 28 days, compared with the model group) is “significantly less suffered from pulmonary inflammation and systemic inflammation”. This compound gave an LD50 at 1 week in [6] of over 1500 mg/kg. Further, the “pathological changes in tissues and organs (HE staining)” value in the data set with ICR mice is “no pathological changes were found”.

For the compound `CCCCN1CCN(c2ccc(Nc3ncc(Cl)c(Nc4cccc(C(F)(F)F)c4)n3)nc2)CC1` [Compound 48, N^2-(5-(4-butylpiperazin-1-yl)pyridin-2-yl)-5-chloro-N^4-(3-(trifluoromethyl)phenyl)pyrimidine-2,4-diamine], the values for the IC50 in data set [1] and in data set [2] were 199 ± 2.03 nM and 240.5 ± 1.2 nM, respectively.

Consider `CON1CCN(c2ccc(Nc3ncc(C)c(Nc4cccc(C(F)(F)F)c4)n3)nc2)CC1` [Compound 67, 5-methyl-N^2-(5-(4-methoxypiperazin-1-yl)pyridin-2-yl)-N^4-(3-(trifluoromethyl)phenyl)pyrimidine-2,4-diamine], for which the IC50 is 156 ± 2.13 nM in [1], 139.8 ± 1.03 nM in data set [2] and 167 ± 2.01 nM in [3].
